This note sets out measurements from ChEMBL document CHEMBL3608283, “Pyrrolopyridine or Pyrazolopyridine Derivatives” (ACS Med Chem Lett, 2015).

Molecules are shown by their SMILES. Changes are numbered by the printed parent chain.

In general, EC50 refers to the concentration at which the effect is half-maximal.

The target in assay [1] is T1, Muscarinic acetylcholine receptor M1 (Rattus norvegicus, UniProt P08482).
T1 sequence (P08482 whole entry): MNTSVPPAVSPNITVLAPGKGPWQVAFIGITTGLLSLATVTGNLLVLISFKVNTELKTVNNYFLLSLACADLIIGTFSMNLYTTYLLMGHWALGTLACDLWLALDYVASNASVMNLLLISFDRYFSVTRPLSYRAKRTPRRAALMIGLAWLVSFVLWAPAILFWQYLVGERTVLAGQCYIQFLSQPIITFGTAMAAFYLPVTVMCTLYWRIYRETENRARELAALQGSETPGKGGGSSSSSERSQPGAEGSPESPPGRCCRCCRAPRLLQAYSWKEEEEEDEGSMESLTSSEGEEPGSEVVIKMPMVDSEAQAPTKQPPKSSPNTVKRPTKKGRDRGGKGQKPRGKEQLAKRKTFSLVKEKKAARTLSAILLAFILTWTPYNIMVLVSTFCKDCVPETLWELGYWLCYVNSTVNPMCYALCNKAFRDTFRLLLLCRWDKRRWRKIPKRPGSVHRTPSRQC
As to the kind of experiment: Positive allosteric modulation of rat muscarinic M1 receptor expressed in CHO cells assessed as basal and acetylcholine-stimulated Ca2+ level by FLIPR assay. The class given is functional, cell-based.

Assay [2] concerns the target T2, Muscarinic acetylcholine receptor M1 (Homo sapiens, UniProt P11229).
T2 sequence (P11229 whole entry): T1 sequence (P08482 whole entry) with V5A, S254T, S309P, K320R, G337A, V413I
As to the kind of experiment: Positive allosteric modulation of human muscarinic M1 receptor expressed in CHO cells assessed as basal and acetylcholine-stimulated Ca2+ level by FLIPR assay. The class given is functional, cell-based.

For the compound `Cn1cc(-c2ccc(Cn3cc(C(=O)N[C@H]4CCOC[C@@H]4O)c4ncccc43)c(F)c2)cn1`, the EC50 in assay [1] amounted to 0.0586 µM; in assay [2], 0.0285 µM.

As to `Cn1cc(-c2ccc(Cn3cc(C(=O)N[C@H]4CCOC[C@@]4(C)O)c4ncccc43)c(F)c2)cn1`, the figures for the EC50 in assay [1] and in assay [2] were 0.0632 µM and 0.0479 µM, respectively.

In the case of `Cn1ncc2cc(Cn3cc(C(=O)N[C@H]4COCC[C@@H]4O)c4ncccc43)ccc21`, the EC50 came to 0.163 µM in assay [1] and 0.0715 µM in assay [2].

Consider `Cn1cc(-c2ccc(Cn3cc(C(=O)N[C@H]4COCC[C@@H]4O)c4ncccc43)cc2)cn1`, for which the EC50 in assay [1] is 0.0138 µM; in assay [2] it was 0.0111 µM.

For the compound `Cn1cc(-c2ccc(Cn3cc(C(=O)N[C@H]4COCC[C@@H]4O)c4ncccc43)cn2)cn1`, the figures for the EC50 in assay [1] and in assay [2] were 0.0711 µM and 0.0348 µM, respectively.

`Cn1cc(-c2ccc(Cn3cc(C(=O)N[C@H]4COCC[C@@H]4O)c4ncccc43)cc2F)cn1`: the figures for the EC50 in assay [1] and in assay [2] were 0.018 µM and 0.0155 µM, respectively.

As for `CNC(=O)c1ccc(Cn2cc(C(=O)N[C@H]3COCC[C@@H]3O)c3ncccc32)cc1`, the results for the EC50 in assay [1] and in assay [2] were 0.018 µM and 0.0091 µM, respectively.
